ChEMBL document CHEMBL2380271, “Synthesis and biological evaluation of a class of quinolone triazoles as potential antimicrobial agents and their interactions with calf thymus DNA” (2013)
≈ marks a conversion by molar mass, not a printed value.

Assays:
[1] = test system: Salmonella typhi; assay: Antibacterial activity against Eberthella typhosa by NCCLS method; assay type: functional, Salmonella enterica subsp. enterica serovar Typhi; details: Salmonella enterica
[2] = test system: Shigella dysenteriae; assay: Antibacterial activity against Shigella dysenteriae by NCCLS method; assay type: functional
[3] = test system: Saccharomyces cerevisiae; assay: Antifungal activity against Saccharomyces cerevisiae by NCCLS method; assay type: functional
[4] = test system: Staphylococcus aureus; assay: Antibacterial activity against Staphylococcus aureus ATCC 25923 by NCCLS method; assay type: functional
[5] = test system: Cyberlindnera jadinii; assay: Antifungal activity against Candida utilis by NCCLS method; assay type: functional; details: Williopsis jadinii
[6] = test system: Staphylococcus aureus; assay: Antibacterial activity against methicillin-resistant Staphylococcus aureus N315 by NCCLS method; assay type: functional
[7] = test system: Pseudomonas aeruginosa; assay: Antibacterial activity against Pseudomonas aeruginosa by NCCLS method; assay type: functional
[8] = test system: Escherichia coli; assay: Antibacterial activity against Escherichia coli DH52 by NCCLS method; assay type: functional
[9] = test system: Micrococcus luteus; assay: Antibacterial activity against Micrococcus luteus ATCC 4698 by NCCLS method; assay type: functional
[10] = test system: Aspergillus flavus; assay: Antifungal activity against Aspergillus flavus by NCCLS method; assay type: functional
[11] = test system: Candida albicans; assay: Antifungal activity against Candida albicans by NCCLS method; assay type: functional
[12] = test system: Aspergillus flavus; assay: Ratio of Fluconazole MIC to compound MIC for Aspergillus flavus; assay type: functional

Compound	MIC [1] [µg/mL]	MIC [2] [µg/mL]	MIC [3] [µg/mL]	MIC [4] [µg/mL]	MIC [5] [µg/mL]	MIC [6] [µg/mL]	MIC [7] [µg/mL]	MIC [8] [µg/mL]	MIC [9] [µg/mL]	MIC [10] [µg/mL]	MIC [11] [µg/mL]	Ratio [12]
O=C(O)c1cn(CC(O)Cn2cncn2)c2c(F)cc(F)cc2c1=O (stereo unspecified)	1 (≈ 2.85 µM)	16 (≈ 45.7 µM)	512 (≈ 1460 µM)	2 (≈ 5.71 µM)	> 512	8 (≈ 22.8 µM)	2 (≈ 5.71 µM)	2 (≈ 5.71 µM)	2 (≈ 5.71 µM)	256 (≈ 731 µM)	8 (≈ 22.8 µM)	
O=C(O)c1cn(CC(O)Cn2cncn2)c2cc(Cl)c(F)cc2c1=O (stereo unspecified)	4 (≈ 10.9 µM)	64 (≈ 175 µM)	256 (≈ 698 µM)	64 (≈ 175 µM)	> 512	64 (≈ 175 µM)	2 (≈ 5.45 µM)	8 (≈ 21.8 µM)	16 (≈ 43.6 µM)	128 (≈ 349 µM)	16 (≈ 43.6 µM)	
O=C(O)c1cn(CC(O)Cn2cncn2)c2c(Cl)cc(Cl)cc2c1=O (stereo unspecified)	16 (≈ 41.8 µM)	4 (≈ 10.4 µM)	128 (≈ 334 µM)	64 (≈ 167 µM)	> 512	4 (≈ 10.4 µM)	8 (≈ 20.9 µM)	64 (≈ 167 µM)	64 (≈ 167 µM)	256 (≈ 668 µM)	32 (≈ 83.5 µM)	
O=C(O)c1cn(CC(O)Cn2cncn2)c2c(F)cccc2c1=O (stereo unspecified)	64 (≈ 193 µM)	1 (≈ 3.01 µM)	256 (≈ 770 µM)	32 (≈ 96.3 µM)	> 512	64 (≈ 193 µM)	8 (≈ 24.1 µM)	4 (≈ 12 µM)	8 (≈ 24.1 µM)	128 (≈ 385 µM)	16 (≈ 48.2 µM)	
CCOC(=O)c1cn(CC(O)Cn2cncn2)c2cc(C(F)(F)F)ccc2c1=O (racemic)	0.5 (≈ 1.22 µM)	32 (≈ 78 µM)	64 (≈ 156 µM)	16 (≈ 39 µM)	128 (≈ 312 µM)	32 (≈ 78 µM)	1 (≈ 2.44 µM)	32 (≈ 78 µM)	2 (≈ 4.87 µM)	8 (≈ 19.5 µM)	64 (≈ 156 µM)	
CCOC(=O)c1cn(CC(O)Cn2cncn2)c2cc(Cl)c(F)cc2c1=O (racemic)	1 (≈ 2.53 µM)	32 (≈ 81.1 µM)	512 (≈ 1300 µM)	64 (≈ 162 µM)	> 512	4 (≈ 10.1 µM)	4 (≈ 10.1 µM)	32 (≈ 81.1 µM)	4 (≈ 10.1 µM)	16 (≈ 40.5 µM)	8 (≈ 20.3 µM)	
CCOC(=O)c1cn(CC(O)Cn2cncn2)c2c(F)cccc2c1=O (racemic)	0.5 (≈ 1.39 µM)	8 (≈ 22.2 µM)	32 (≈ 88.8 µM)	64 (≈ 178 µM)	> 512	128 (≈ 355 µM)	32 (≈ 88.8 µM)	8 (≈ 22.2 µM)	2 (≈ 5.55 µM)	512 (≈ 1420 µM)	32 (≈ 88.8 µM)	
CCOC(=O)c1cn(CC2CO2)c2ccc(C)cc2c1=O (racemic)	2 (≈ 6.96 µM)	128 (≈ 446 µM)	64 (≈ 223 µM)	256 (≈ 891 µM)	256 (≈ 891 µM)	16 (≈ 55.7 µM)	32 (≈ 111 µM)	128 (≈ 446 µM)	32 (≈ 111 µM)	16 (≈ 55.7 µM)	2 (≈ 6.96 µM)	
CCOC(=O)c1cn(CC2CO2)c2c(F)cccc2c1=O (racemic)	2 (≈ 6.87 µM)	512 (≈ 1760 µM)	4 (≈ 13.7 µM)	2 (≈ 6.87 µM)	> 512	2 (≈ 6.87 µM)	256 (≈ 879 µM)	16 (≈ 54.9 µM)	> 512	0.5 (≈ 1.72 µM)	1 (≈ 3.43 µM)	256
CCOC(=O)c1cn(CC(O)Cn2cncn2)c2c(F)cc(F)cc2c1=O (racemic)	0.5 (≈ 1.32 µM)	32 (≈ 84.6 µM)	512 (≈ 1350 µM)	1 (≈ 2.64 µM)	> 512	32 (≈ 84.6 µM)	4 (≈ 10.6 µM)	8 (≈ 21.1 µM)	2 (≈ 5.29 µM)	64 (≈ 169 µM)	64 (≈ 169 µM)	
CCOC(=O)c1cn(CC(O)Cn2cncn2)c2ccc(C)cc2c1=O (racemic)	4 (≈ 11.2 µM)	4 (≈ 11.2 µM)	64 (≈ 180 µM)	64 (≈ 180 µM)	> 512	2 (≈ 5.61 µM)	2 (≈ 5.61 µM)	4 (≈ 11.2 µM)	16 (≈ 44.9 µM)	256 (≈ 718 µM)	128 (≈ 359 µM)	
CCOC(=O)c1cn(CC(O)Cn2cncn2)c2ccc(F)cc2c1=O (racemic)	1 (≈ 2.78 µM)	64 (≈ 178 µM)	512 (≈ 1420 µM)	32 (≈ 88.8 µM)	64 (≈ 178 µM)	8 (≈ 22.2 µM)	16 (≈ 44.4 µM)	16 (≈ 44.4 µM)	8 (≈ 22.2 µM)	512 (≈ 1420 µM)	32 (≈ 88.8 µM)	
O=C(N[C@H](CO)[C@H](O)c1ccc([N+](=O)[O-])cc1)C(Cl)Cl [CHLORAMPHENICOL]	32 (≈ 99 µM)	32 (≈ 99 µM)	> 512	16 (≈ 49.5 µM)	> 512	16 (≈ 49.5 µM)	32 (≈ 99 µM)	32 (≈ 99 µM)	8 (≈ 24.8 µM)	> 512	> 512	
OC(Cn1cncn1)(Cn1cncn1)c1ccc(F)cc1F [FLUCONAZOLE]	> 512	> 512	16 (≈ 52.2 µM)	> 512	8 (≈ 26.1 µM)	> 512	> 512	> 512	> 512	256 (≈ 836 µM)	1 (≈ 3.27 µM)	
CCn1cc(C(=O)O)c(=O)c2cc(F)c(N3CCNCC3)cc21 [NORFLOXACIN]	4 (≈ 12.5 µM)	4 (≈ 12.5 µM)	> 512	0.5 (≈ 1.57 µM)	> 512	8 (≈ 25.1 µM)	1 (≈ 3.13 µM)	16 (≈ 50.1 µM)	2 (≈ 6.26 µM)	> 512	> 512	
